Consider 1 compound from patent US10960002B2, “Volatile metabolite profiles for the diagnosis and treatment of Mucorales fungi” (The Brigham and Women's Hospital, Inc., priority 2016, dated 2021).

In this test the test system is Rhizopus microsporus. In words: Sequential GC-MS analysis of breath samples from a patient with proven Rhizopus microsporus infection during antifungal therapy. The class given is in vivo, human. The following applies: one patient with proven Rhizopus microsporus infection; from day 0 (start of therapy) over the 28-day treatment course.

Each structure is given as a SMILES string.

With `C[C@@H](c1nc(-c2ccc(C#N)cc2)cs1)[C@](O)(Cn1cncn1)c1cc(F)ccc1F` [isavuconazole], the “breath levels of three sesquiterpene metabolites (1H-Indene, 2,3,3a,4-tetrahydro-3,3a,6-trimethyl-1-(1-methylethyl)-; cedrene; cedranoxide, 8,14-)” value is “gradual attenuation and disappearance”.
